Key:
[1] = test system: human adenocarcinoma cell line CaCo-2; assay: Cell based screen for inhibitors of Raf kinase, quantitative assay; details: Caco-2, 96 h, four days incubation
Protocol: (§1) • Cell Lines: Human adenocarcinoma cell line LoVo which is known to be growth inhibited by low nM concentrations of a reference standard inhibitor of Ras and human adenocarcinoma cell line CaCo-2, which is known to be growth resistant to the same reference compound. • Cell Media : RPMI 1640 with 10% Fetal Bovine Serum supplemented with L-glutamine and Pennicilin/Streptomycin. • Compounds: Supplied usually as a 10 mM stock in 100% DMSO. • Normal Saline: 150 mM NaCl • Trichloroacetic Acid (TCA): 50% (w/v) in water • Sulforhodamine B (SRB): 0.4% (w/v) in 1% Acetic Acid • Tris Base: 10 mM in water
(§2) Cells are plated at 2000 cells per well for cell line LoVo and 1500 cells for cell line CaCo-2 in 96 well plates. Cells are plated in media (200 µl) and allowed to adhere overnight at 37°C. At 24 hours post plating, compounds are added directly at a volume of 0.5 µl. For the qualitative screen (compounds screened at 25 µM) compound is added directly to cells. For the quantitative screen, compound is first diluted in DMSO to generate concentrations of compound or reference standard of: 1, 5, 10 and 25 µM. It is advisable to make the dilutions in an identical 96 well plate so that compounds can be added using a multichannel micropipettor set at 0.5 µl. The cells are then incubated for four days after which the media is removed using a 12 well manifold by first tipping the plate forward at a 45 degree angle and then inserting the manifold in an upright orientation to prevent the tips of the manifold from disturbing cells at the bottom of the plate. 200 µl of normal saline is then added to each well using an 8 well multichannel pipettor, followed by the careful addition of 50 µl of 50% TCA. The plates are then incubated for 2 hours at 4°C, after which the supernatant is removed using the same technique as above and the plated washed twice with 200 µl water. The plates are then air dried and 50 µl of SRB stock solution is carefully added so that the entire bottom of each well is covered. This again can be used using an 8 well multichannel pipettor. The SRB is incubated with fixed cells for 15 minutes at room temperature after which the SRB is removed with the manifold as described above and the plates washed twice with 350 µl of 1% acetic acid per well each time. The plates are then air dried after which the bound SRB is released from protein by the addition of 200 µl of Tris base. Resolubilizing the SRB is aided by placing the plates on a rotator for 15-30 minutes. The absorbance of each well is determined at 550 or 562 nm using a microtiter plate reader.
(§3) Each compound or dilution thereof is performed in triplicate. Outliers are identified by visual inspection of the data. Each plate should have a "0" control (vehicle only).
(§4) Quantitative Assay: A standard curve is constructed by plotting the concentration of compound against the average absorbance calculated at that concentration. […] Multiple entries for a given compound indicate that it is tested multiple times.

[2] = test system: Human adenocarcinoma cell line LoVo; assay: as above; details: 96 h, four days incubation
Protocol: as §1, §2, §3, §4

Raf-1 (c-Raf) = biological target: T1, Raf-1 (c-Raf) (Homo sapiens, UniProt P04049); assay: Raf1 kinase cascade assay procedure; type: biochemical
T1 construct: Sf9 insect cell lysate containing full length 6his-tagged recombinant human c-Raf; host or cells: c-Raf: Sf9 insect cell lysate; MEK1 and MAPK: E. coli
T1 sequence (P04049 whole entry): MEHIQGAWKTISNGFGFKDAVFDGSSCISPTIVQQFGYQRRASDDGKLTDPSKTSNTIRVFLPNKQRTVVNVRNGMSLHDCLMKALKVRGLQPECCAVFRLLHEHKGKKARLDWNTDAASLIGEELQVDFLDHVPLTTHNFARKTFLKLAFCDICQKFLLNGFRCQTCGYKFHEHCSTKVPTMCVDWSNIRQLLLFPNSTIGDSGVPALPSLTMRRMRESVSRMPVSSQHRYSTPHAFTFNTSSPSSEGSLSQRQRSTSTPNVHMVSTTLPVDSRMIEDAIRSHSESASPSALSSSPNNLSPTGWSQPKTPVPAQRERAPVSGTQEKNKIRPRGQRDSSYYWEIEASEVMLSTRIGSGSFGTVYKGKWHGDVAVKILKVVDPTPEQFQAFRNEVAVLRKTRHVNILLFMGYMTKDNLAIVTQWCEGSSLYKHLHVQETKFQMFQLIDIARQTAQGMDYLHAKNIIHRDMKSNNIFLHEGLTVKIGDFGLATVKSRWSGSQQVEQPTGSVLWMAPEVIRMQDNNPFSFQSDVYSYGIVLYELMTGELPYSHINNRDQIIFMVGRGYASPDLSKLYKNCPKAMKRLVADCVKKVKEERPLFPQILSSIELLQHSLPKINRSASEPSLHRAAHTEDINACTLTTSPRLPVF
Protocol: (Specific Activity: ~200U/ml). Human Non-active Mek-1-GST and human GST-MAP kinase (recombinant proteins produced in E. coli).
• 1. Assay Dilution Buffer (ADB): 20mM MOPS, pH 7.2, 25mM β-glycerol phosphate, 5mM EGTA, 1mM sodium orthovanadate, 1mM dithiothreitol. • 2. Magnesium/ATP Cocktail: 500µM cold ATP and 75 mM magnesium chloride in ADB. • 4. Active Kinase: Human Active c-Raf: Use at 0.4U per assay point • 5. Non-active GST-MEK1: Use at 0.1µg per assay point. • 6. Non-active GST-p42 MAP Kinase: Use at 1.0 µg per assay point
• 1. TBST - Tris (50 mM, pH 7.5), NaCl (150 mM), Tween-20 (0.05 %) • 2. Superblock (Pierce) • 3. Anti-GST Ab (Pharmacia) • 4. Anti-Phospho MAPK (Sigma) • 5. Anti-Mouse Ab / Europium conjugate (Wallac)
First Stage: c-Raf Dependent Activation of GST-MEK and GST-MAPK • 1. Add […] of ADB per assay (i.e. per well of a 96 well plate) • 2. Add 10 ml of 0.5 mM cold ATP and 75 mM magnesium chloride in ADB. • 3. Add 2 ml of c-Raf (0.4U/assay), in conjunction with 1.6ml non-active MEK1 ([…]). • 4. Add 4 ml of non-active GST-p42 MAP Kinase (1.0 mg/assay). • 5. Incubate for 60 minutes at 30°C in a shaking incubator. • 6. Transfer this mixture to an anti-GST Ab coated 96 well plate (Nunc Immunosorb plates coated o/n with a-GST, then blocked with Pierce Superblock). • 7. Incubate for 60 minutes at 30°C in a shaking incubator Wash 3X with TBST, add Anti-Phospho MAPK (Sigma) (1:3000) • 6. Incubate for 60 minutes at 30°C in a shaking incubator • 7. Wash 3X with TBST, add Anti-Mouse Ab / Europium conjugate (Wallac) (1:500) • 8. Incubate for 60 minutes at 30°C in a shaking incubator • 9. Wash 3X with TBST, Read plates in Wallac Victor model Plate Reader. • 10. Collect data analyze in Excel for single point and IC50 determinations.
Typically Raf-1 assay is run at compound concentrations from 10 µM to 1 nM in half log dilutions. (% inhibition is determined for each compound concentration).

[3] = biological target: T2, EGF-R Kinase (recombinant enzyme) (Homo sapiens, UniProt P00533); assay: Inhibition of Epidermal Growth Factor Receptor Kinase (EGF-R) using recombinant enzyme; type: biochemical; details: RR-SRC peptide substrate, (a) = average of two tests
T2 construct: EGFR cDNA encoding amino acids 645 - 1186 preceded by Met-Ala-(His)6; made in house; host or cells: Sf9 insect cells, recombinant baculovirus vHcEGFR52
T2 sequence (P00533 669-1210): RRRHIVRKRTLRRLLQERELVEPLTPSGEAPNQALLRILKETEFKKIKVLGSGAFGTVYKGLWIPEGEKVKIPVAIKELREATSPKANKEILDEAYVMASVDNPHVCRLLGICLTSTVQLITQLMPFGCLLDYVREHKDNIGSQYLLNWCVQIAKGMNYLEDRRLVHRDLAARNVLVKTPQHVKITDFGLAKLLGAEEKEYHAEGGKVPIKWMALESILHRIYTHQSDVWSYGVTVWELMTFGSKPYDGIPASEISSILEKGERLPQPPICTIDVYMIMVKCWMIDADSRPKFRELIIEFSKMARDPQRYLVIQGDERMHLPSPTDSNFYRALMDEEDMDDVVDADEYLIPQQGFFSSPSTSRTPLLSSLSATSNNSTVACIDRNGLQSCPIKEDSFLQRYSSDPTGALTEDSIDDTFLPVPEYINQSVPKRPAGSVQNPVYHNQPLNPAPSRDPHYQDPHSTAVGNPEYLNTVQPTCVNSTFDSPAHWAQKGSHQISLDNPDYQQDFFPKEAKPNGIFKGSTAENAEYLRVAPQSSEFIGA
Protocol: Representative test compounds are evaluated in a standard pharmacological test procedure to measure their ability to inhibit the phosphorylation of the tyrosine residue of a peptide substrate catalyzed by the enzyme epidermal growth factor receptor kinase. […] The enzyme used in this assay is the His-tagged cytoplasmic domain of EGFR. […] Sf9 cells in 100 mm plates are infected at a multiplicity of infection of 10 pfu/cell and cells are harvested 48 h post infection. A cytoplasmic extract is prepared using 1% Triton X-100 and applied to Ni-NTA column. After washing the column with 20 mM imidazole, HcEGFR is eluted with 250 mM imidazole (in 50 mM Na2HPO4, pH 8.0, 300 mM NaCl). Fractions collected are dialyzed against 10 mM HEPES, pH 7.0, 50 mM NaCl, 10% glycerol, 1ug/mL antipain and leupeptin and 0.1 mM Pefabloc SC. The protein is frozen in dry ice/methanol and stored -70°C.
Test compounds are made into 10 mg/mL stock solutions in 100% dimethylsulfoxide (DMSO). Prior to experiment, stock solutions are diluted to 500 uM with 100% DMSO and then serially diluted to the desired concentration with HEPES buffer (30 mM HEPES pH 7.4).
For the enzyme reaction, 10 uL of each inhibitor (at various concentrations) are added to each well of a 96-well plate. To this is added 3 uL of enzyme (1:10 dilution in 10mM HEPES, pH 7.4 for final conc. of 1:120). This is allowed to sit for 10 min on ice and is followed by the addition of 5 ul peptide (80 uM final conc.), 10ul of 4X Buffer containing 50 mM HEPES (pH 7.4), 200 mM Na3VO4, 40mM MnCl2, 80 uM ATP, 0.25 uL ^33P-ATP (>2500 Ci/mmol; Amersham) and 12 uL H2O. The reaction is allowed to run for 90 min at room temperature and is followed by spotting the entire volume onto precut P81 filter papers. The filter discs are washed 2X with 0.5% phosphoric acid and radioactivity is measured using a liquid scintillation counter.
The % inhibition of the test compound is determined for at least three different concentrations and the IC50 value is evaluated from the dose response curve. […] CPM(control) is in units of counts per minute and is a number expressing the amount of radiolabled ATP (γ-^33P) incorporated into the RR-SRC peptide substrate by the enzyme after 90 minutes at room temperature in the absence of test compound as measured by liquid scintillation counting. The CPM values are corrected for the background counts produced by ATP in the absence of the enzymatic reaction.

Row | SMILES | IC50 [1] [nM] | IC50 [2] [nM] | IC50 (Raf-1 (c-Raf)) [nM] | IC50 [3] [nM]
1 | N#Cc1cnc2c(c1Nc1ccc(Oc3ccccc3)cc1)C=C1N=CN=C1C2 [Example 44, 8-(4-Phenoxyanilino)imidazo[4,5-g]quinoline-7-carbonitrile] | 9200 | 850 | 9 | 
2 | COc1cc(Nc2c(C#N)cnc3cc4cc(OCCN5CCOCC5)c(OC)cc4cc23)c(C)cc1Cl [Example 124, 4-(4-chloro-5-methoxy-2-methylanilino)-7-methoxy-8-[2-(4-morpholinyl)ethoxy]benzo[g]quinoline-3-carbonitrile] |  |  | 130 | 3000
3 | COc1cc2cc3c(Nc4ccc(Sc5nccn5C)c(Cl)c4)c(C#N)cnc3nc2cc1OCCCl [Example 174, 8-(2-Chloroethoxy)-4-{3-chloro-4-[(1-methyl-1H-imidazol-2-yl)sulfanyl]anilino}-7-methoxybenzo[b][1,8]naphthyridine-3-carbonitrile] | 4000 | 440 | > 10000 | 
4 | COc1cc2cc3c(Nc4ccc(Sc5nccn5C)c(Cl)c4)c(C#N)cnc3nc2cc1OCCN1CCOCC1 [Example 176, 4-{3-Chloro-4-[(1-methyl-1H-imidazol-2-yl)sulfanyl]anilino}-7-methoxy-8-[2-(4-morpholinyl)ethoxy]benzo[b][1,8]naphthyridine-3-carbonitrile] | 10000 | 3500 | 3000 | 
5 | COc1cc2cc3c(Nc4ccc(F)c(Cl)c4)c(C#N)cnc3cc2cc1OCCN1CCOCC1 [Example 205, 4-(3-Chloro-4-fluoroanilino)-7-methoxy-8-[2-(4-morpholinyl)ethoxy]benzo[g]quinoline-3-carbonitrile] |  |  |  | 250
6 | COc1cc2cc3c(Nc4ccc(Oc5ccccc5)c(Cl)c4)c(C#N)cnc3cc2cc1OCCN1CCOCC1 [Example 213, 4-(3-Chloro-4-phenoxyphenylamino)-7-methoxy-8-(2-morpholin-4-yl-ethoxy)benzo[g]quinoline-3-carbonitrile] | 1400 | 300 | 27 | 
7 | COc1cc2cc3ncc(C#N)c(Nc4ccc(Oc5ccccc5)c(Cl)c4)c3cc2cc1OCCN1CCOCC1 [Example 214, 4-(3-Chloro-4-phenoxyphenylamino)-8-methoxy-7-(2-morpholin-4-yl-ethoxy)benzo[g]quinoline-3-carbonitrile] | 8000 | 250 | 310 | 
8 | COc1cc(Nc2c(C#N)cnc3cc4cc(OCCN5CCOCC5)c(OC)cc4cc23)c(Cl)cc1C [Example 216, 4-(2-Chloro-5-methoxy-4-methylphenylamino)-7-methoxy-8-(2-morpholin-4-yl-ethoxy)benzo[g]quinoline-3-carbonitrile] |  |  |  | 290
9 | COc1cc2cc3ncc(C#N)c(Nc4ccc(OCc5ccccc5)c(Cl)c4)c3cc2cc1OCCN1CCOCC1 [Example 217, 4-(4-Benzyloxy-3-chlorophenylamino)-8-methoxy-7-(2-morpholin-4-yl-ethoxy)benzo[g]quinoline-3-carbonitrile] | 4800 | 480 | > 10000 | 
